Measurements as given in patent publication US10632110B2, “Pharmaceutical composition for preventing or treating cancer and method using thereof” (MEDPACTO INC., priority 2016, dated 2020).
Marks after values point to notes of the source that are not given here.

Columns and labels:
Assay type in all cases: in vivo, C57BL/6 mice
[1] = test system: B16F10 melanoma cell line; assay: Test of tumor inhibitory effects of drug in mouse model; design: tumor inhibition rate (vs. vehicle, human IgG or hamster IgG administered group): concentration or dose not given beside the values; conditions: for Tumor volume change (Δt = Vt − V0): TEW-7197 25 mg/kg oral, antibody about 100 μg per mouse
Protocol: (§1) In order to validate in vivo anti-tumor effects, female 5 week-old SPF C57BL/6 mice were purchased from Koatech Co. (South Korea). These mice were maintained in a room controlled at a temperature of about 22° C. while freely supplying food and water to them. 1 week after, 5×10^4 cells of B16F10 melanoma cell line (ATCC, CRL-6475™) were injected to these 6 week-old mice by subcutaneous injection. 8 week-old mice, 2 weeks after the injection of melanoma cell line, were used in the experiment.
(§2) As a carrier, 7 ml of 37% (v/v) […], 2.0 g of NaCl, 3.2 g of pepsin (Sigma-Aldrich), and distilled water were mixed together to prepare 1,000 ml of artificial gastric fluid. As an administration drug, N-((4-([1,2,4]triazolo[1,5-a]pyridin-6-yl)-5-(6-methylpyridin-2-yl)-1H-imidazol-2-yl)methyl)-2-fluoroaniline (hereinafter, referred to as “TEW-7197”) (Syngene, India) was dissolved in the carrier to prepare 2.5 mg/ml of TEW-7197 solution.
(§3) As for another administration drug, anti-PD-L1 monoclonal antibody (prepared by requesting to ANR therapeutics co., Ltd., host cell: HEK293F), anti-PD1 monoclonal hamster antibody (BioXCell, Cat. No. BE0033-2), anti-CTLA4 monoclonal hamster antibody (BioXCell, Cat. No. BE0131), human immunoglobulin G (IgG) (Thermo Scientific, Cat. No. 31154), and monoclonal hamster IgG (BioXCell, Cat. No. BE0091) were prepared.
(§4) The mouse models prepared in 1. were orally administered with 2.5 mg/ml of a TEW-7197 solution at a dose of 25 mg/weight kg once a day for 5 consecutive days of a week. Then, during the last 2 days, the TEW-7197 solution was not administered to them. These mice were administered with antibody at a dose of about 100 μg per mouse once every 2 days by abdominal injection. As for a control group for TEW-7197, a carrier administered group was used. As for a control group for antibody, a human IgG administered group and a hamster IgG administered group were used.
As described in 2., drug administration was carried out, and then 20 minutes after the last dose of the drug, mice were sacrificed, tumors were resected from the mice. Tumor volume was measured with calipers and calculated using Equation 1: Tumor volume (mm^3)=[length (mm)×width (mm)×height (mm)]/2 [Equation 1]
The difference between the initial tumor volume (V0) in the start date and the tumor volume after drug administration (Vt) was calculated, to calculate the change in tumor volume (Δt=Vt−V0). From the calculated tumor volume, the tumor inhibition rate (%) by drug administration was calculated.

[2] = test system: B16F10 melanoma cell line; assay: Test of synergistic combination of drugs in mouse model; conditions: 11 days after drug administration, TEW-7197 10 mg/kg oral, antibody about 100 μg per mouse
Protocol: In detail, as described in 1., C57BL/6 mice were prepared, and 1×10^4 cells of B16F10 melanoma cell line (ATCC, CRL-6475™) were injected to each of the mice. When the average tumor size of each group reached about 26.0 mm^3, drug administration was carried out.
As described in 1., TEW-7197, anti-CTLA4 antibody, anti-PD-L1 antibody, anti-PD1 antibody, human IgG, and hamster IgG were prepared as drugs.
The prepared mice were orally administered with a TEW-7197 solution at a dose of 10 mg/weight kg once a day for 5 consecutive days of a week. Then, during the last 2 days, the TEW-7197 solution was not administered. These mice were administered with antibody at a dose of about 100 μg per mouse once every 2 days by abdominal injection. In a negative control group, a vehicle was administered for TEW-7197, and human IgG or hamster IgG was administered for antibody. 11 days after the drug administration, tumor volume was measured with calipers and calculated as described in 3.

[3] = Measurement of weight caused by administration drug in melanoma mouse model
Protocol: as §1, §2, §3, §4
From the day that the drugs were administered (start date) to the 11th day, the weights of mice were measured every 2 days.

weight change of mice (average (%) ± standard deviation) ([3]; 2 days after administration, TEW-7197 25 mg/kg oral, antibody about 100 μg per mouse): 104.3 ± 1.2%
weight change of mice (average (%) ± standard deviation) ([3]; 4 days after administration, TEW-7197 25 mg/kg oral, antibody about 100 μg per mouse): 106.7 ± 3.5%
weight change of mice (average (%) ± standard deviation) ([3]; 6 days after administration, TEW-7197 25 mg/kg oral, antibody about 100 μg per mouse): 108.7 ± 4.5%
weight change of mice (average (%) ± standard deviation) ([3]; 8 days after administration, TEW-7197 25 mg/kg oral, antibody about 100 μg per mouse): 115.8 ± 6.4%
weight change of mice (average (%) ± standard deviation) ([3]; 11 days after administration, TEW-7197 25 mg/kg oral, antibody about 100 μg per mouse): 125.0 ± 6.5%
weight change of mice (average (%) ± standard deviation) ([3]; Start date, TEW-7197 25 mg/kg oral once a day 5 days a week, antibody about 100 μg per mouse every 2 days abdominal injection): 100.0 ± 0.0%
weight change caused by drug (in words) ([3]; up to 11th day, Table 2): barely had significant weight change
SMILES: Cc1cccc(-c2[nH]c(CNc3ccccc3F)nc2-c2ccc3ncnn3c2)n1 [TEW-7197, N-((4-([1,2,4]triazolo[1,5-a]pyridin-6-yl)-5-(6-methylpyridin-2-yl)-1H-imidazol-2-yl)methyl)-2-fluoroaniline]
tumor inhibition rate (vs. vehicle, human IgG or hamster IgG administered group) ([1]; 2 days after administration): 21.3%
Tumor volume change (Δt = Vt − V0) ([1]; 2 days after administration): 30.4 ± 6.6 mm^3
tumor inhibition rate (vs. vehicle, human IgG or hamster IgG administered group) ([1]; 4 days after administration): 21.7%
Tumor volume change (Δt = Vt − V0) ([1]; 4 days after administration): 100.4 ± 11.4* mm^3
tumor inhibition rate (vs. vehicle, human IgG or hamster IgG administered group) ([1]; 6 days after administration): 23.0%
Tumor volume change (Δt = Vt − V0) ([1]; 6 days after administration): 174.5 ± 29.6** mm^3
tumor inhibition rate (vs. vehicle, human IgG or hamster IgG administered group) ([1]; 8 days after administration): 22.9%
Tumor volume change (Δt = Vt − V0) ([1]; 8 days after administration): 455.3 ± 67.1* mm^3
tumor inhibition rate (vs. vehicle, human IgG or hamster IgG administered group) ([1]; 11 days after administration): 20.9%
Tumor volume change (Δt = Vt − V0) ([1]; 11 days after administration): 1084.0 ± 179.5* mm^3
Tumor volume change (Δt = Vt − V0) ([1]; Start date): 0.0 ± 0.0 mm^3
tumor volume decrease as compared with the negative control group ([2]; FIG. 1A (anti-CTLA4 series)): about 10.1%
tumor volume decrease as compared with the negative control group ([2]; FIG. 1B (anti-PD-L1 series)): about 9.2%
tumor volume decrease as compared with the negative control group ([2]; FIG. 1C (anti-PD1 series)): about 8.1%
